Test results taken from US20230331719A1, “Pyrazolopyridine Compounds and Methods of Inhibiting IRE1 Using Same” (OPTIKIRA, LLC, priority 2020, published 2023).

Experiments:
IRE1α RNase = IRE1α RNase (Homo sapiens (Human), UniProt O75460); test: Inhibition of RNase activity of IRE1α; format: biochemical; conditions: 0.325 nM enzyme, 100 nM substrate, 20 minutes at room temperature
Method: The RNase reactions were performed in 384 well black ProxiPlate-384 Plus plates (PERKIN Elmer) using 50 mM Tris assay buffer with 0.5 mM MgCl2, 10 mM KCl, 0.03 % Tween, 2 mM DTT and 1% DMSO. Test compounds were prepared on the day of assay and dispensed using D300 digital dispenser as a 10-point ½ log dilution series in duplicate, normalized to a final DMSO concentration of […]. Test compounds were pre-incubated for 30 min at room temperature with IRE1α kinase (E31-11G from Signal Chem) in 2.5 µL of assay buffer. Then 2.5 µl of assay buffer containing substrate (5′ Alexa Fluor 647 - rCrArUrGrUrC rCrGrCrArGrCrGrCrArUrG - Iowa Black RQ quencher 3′) (SEQ ID NO:1) added, giving a final concentration of enzyme of 0.325 nM and of substrate of 100 nM. After 20 minutes incubation at room temperature the reactions were stopped by added 5 µL of 5 M urea, incubated at room temperature for 10 minutes and fluorescence measured on a plate reader (EnVision, PerkinElmer). IC50 values calculated by fitting a sigmoidal curve to percent inhibition of control versus compound concentration.

XBP1 = test: Cellular XBP1 splicing assay (NanoLuc luciferase reporter); format: cell-based; conditions: Homo sapiens; ARPE-19 cells stably expressing XBP1-nano-luciferase; thapsigargin 150 nM, 4 hour incubation
Method: ARPE-19 cells stably expressing XBP1 (a.a. 1-376) with nano-luciferase gene sequence linked so it is in frame when XBP1 is spliced, were cultured in F12 media, 10 % FBS, 0.044% sodium bicarbonate, 150 µg/ml hygromycin B and seeded for assays at 5,000 cells in 384 well plates in culture media without hygromycin B and incubated at 37° C./5% CO2. After overnight incubation test compounds were added to the cell plate in a 10-point ½ log dilution series in duplicate (final DMSO concentration 0.117 %). After further incubation of 30 minutes thapsigargin was added (final concentration 150 nM) and then another 4 hour incubation. A NanoLuc luciferase assay (Promega) was used according to the manufacturer’s instructions to detect the luciferase and luminescence measured on a luminometer (EnVision, PerkinElmer). IC50 values calculated by fitting a sigmoidal curve to percent inhibition of control of compound concentration.

IRE1α kinase = IRE1α kinase (Homo sapiens (Human), UniProt O75460); test: Inhibition of kinase activity of IRE1α (ADP-Glo); format: biochemical; conditions: 5 nM IRE1α kinase, 100 µM ATP, 4 hours at room temperature
Chain of IRE1α kinase (O75460 468-977): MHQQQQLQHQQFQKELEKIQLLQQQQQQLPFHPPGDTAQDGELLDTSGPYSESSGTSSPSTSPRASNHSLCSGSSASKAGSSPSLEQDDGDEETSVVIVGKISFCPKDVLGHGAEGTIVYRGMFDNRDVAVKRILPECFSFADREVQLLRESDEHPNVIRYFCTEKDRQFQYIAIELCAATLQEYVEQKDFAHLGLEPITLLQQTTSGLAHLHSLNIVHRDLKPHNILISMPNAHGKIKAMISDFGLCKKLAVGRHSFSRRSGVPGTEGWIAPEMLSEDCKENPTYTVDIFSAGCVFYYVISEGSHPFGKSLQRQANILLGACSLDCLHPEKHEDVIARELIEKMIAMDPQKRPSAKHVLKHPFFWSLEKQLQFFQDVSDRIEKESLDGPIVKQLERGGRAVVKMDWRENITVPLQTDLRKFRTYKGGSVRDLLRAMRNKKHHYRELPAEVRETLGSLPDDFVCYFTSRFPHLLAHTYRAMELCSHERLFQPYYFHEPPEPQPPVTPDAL
Method: The kinase reactions were performed in 384 well white ProxiPlate-384 Plus plates (PERKIN Elmer 6008280) using 25 mM MOPS assay buffer with 1 mM dithiothreitol, 25 mM MgCl2, 12.5 mM β-glycerophosphate, 5 mM EGTA, and 50 µg/mL BSA. Test compounds were prepared on the day of assay and dispensed using D300 digital dispenser as a 10-point ½ log dilution series in duplicate, normalized to a final DMSO concentration of 3%. Test compounds were pre-incubated for 30 min at room temperature with 10 nM IRE1α kinase (E31-11G from Signal Chem) in 2.5 µL of assay buffer and the reaction started by addition of 2.5 µL of ATP in assay buffer, to give a final ATP concentration of 100 µm and 5 nM IRE1α kinase. After 4 hours incubation at room temperature the reactions were stopped and the kinase activity determined using the ADP-Glo™ reagent from Promega, according to the manufacturer’s instructions. Luminescence was measured on a luminometer (EnVision, PerkinElmer) and IC50 values calculated by fitting a sigmoidal curve to percent inhibition of control versus Log10 of compound concentration.

Chain of IRE1α RNase (O75460 468-977): as above

Row | SMILES | IC50 (IRE1α RNase) [nM] | IC50 (XBP1) [nM] | IC50 (IRE1α kinase) [nM]
1 | CC(C)n1nc(-c2cc(F)c(NS(=O)(=O)c3ccccc3F)cc2F)c2c(N)ncc([C@H]3CC[C@H](NCCOC(F)(F)F)CC3)c21 [Compound A8, N-(4-(4-amino-1-isopropyl-7-((1r,4r)-4-((2-(trifluoromethoxy)ethyl)amino)cyclohexyl)-1H-pyrazolo[4,3-c]pyridin-3-yl)-2,5-difluorophenyl)-2-fluorobenzenesulfonamide] | 17.9 | 39.3 | 
2 | COCCN[C@H]1CC[C@H](c2cnc(N)c3c(-c4cc(F)c(NS(=O)(=O)c5cc(OC(F)(F)F)ccc5Cl)cc4F)nn(C(C)C)c32)CC1 [Compound A3, N-(4-(4-amino-1-isopropyl-7-((1r,4r)-4-((2-methoxyethyl)amino)cyclohexyl)-1H-pyrazolo[4,3-c]pyridin-3-yl)-2,5-difluorophenyl)-2-chloro-5-(trifluoromethoxy)benzenesulfonamide] | 3.4 | 15 | 
3 | CCOc1ccc(F)c(S(=O)(=O)Nc2cc(F)c(-c3nn(C(C)C)c4c3c(N)ncc4[C@H]3CC[C@H](NC4CC(F)(F)C4)CC3)cc2F)c1 [Compound A7, N-(4-(4-amino-7-((1r,4r)-4-((3,3-difluorocyclobutyl)amino)cyclohexyl)-1-isopropyl-1H-pyrazolo[4,3-c]pyridin-3-yl)-2,5-difluorophenyl)-5-ethoxy-2-fluorobenzenesulfonamide] |  | 6.1 | 
4 | CCOc1ccc(F)c(S(=O)(=O)Nc2cc(F)c(-c3nn(C(C)C)c4c3c(N)ncc4[C@H]3CC[C@H](NCC(C)F)CC3)cc2F)c1 (stereo partly shown) [Compound A9, N-(4-(4-amino-7-((1r,4r)-4-((2-fluoropropyl)amino)cyclohexyl)-1-isopropyl-1H-pyrazolo[4,3-c]pyridin-3-yl)-2,5-difluorophenyl)-5-ethoxy-2-fluorobenzenesulfonamide] |  | 7.5 | 
5 | COCCN[C@H]1CC[C@H](c2cnc(N)c3c(-c4cc(F)c(NS(=O)(=O)c5cc(C)ccc5F)cc4F)nn(C(C)C)c32)CC1 [Compound A5, N-(4-(4-amino-1-isopropyl-7-((1r,4r)-4-((2-methoxyethyl)amino)cyclohexyl)-1H-pyrazolo[4,3-c]pyridin-3-yl)-2,5-difluorophenyl)-2-fluoro-5-methylbenzenesulfonamide] | 3.1 | 6.8 | 
6 | CC(C)n1nc(-c2cc(F)c(NS(=O)(=O)Cc3ccccc3Cl)cc2F)c2c(N)ncc([C@H]3CC[C@H](N4CCOCC4)CC3)c21 [Compound A19, N-(4-(4-amino-1-isopropyl-7-((1r,4r)-4-morpholinocyclohexyl)-1H-pyrazolo[4,3-c]pyridin-3-yl)-2,5-difluorophenyl)-1-(2-chlorophenyl)methanesulfonamide] |  | 11.1 | 
7 | CCOc1ccc(F)c(S(=O)(=O)Nc2cc(F)c(-c3nn(C(C)C)c4c3c(N)ncc4[C@H]3CC[C@H](N4CCOCC4)CC3)cc2F)c1 [Compound A15, N-(4-(4-amino-1-isopropyl-7-((1r,4r)-4-morpholinocyclohexyl)-1H-pyrazolo[4,3-c]pyridin-3-yl)-2,5-difluorophenyl)-5-ethoxy-2-fluorobenzenesulfonamide] |  | 7.2 | 

Results, then the molecule that gave them:

Row | IC50 (IRE1α RNase) [nM] | IC50 (XBP1) [nM] | IC50 (IRE1α kinase) [nM] | SMILES
8 | 2.7 | 14.5 |  | COCCN[C@H]1CC[C@H](c2cnc(N)c3c(-c4cc(F)c(NS(=O)(=O)c5cc(OC(F)F)ccc5Cl)cc4F)nn(C(C)C)c32)CC1 [Compound A1, N-(4-(4-amino-1-isopropyl-7-((1r,4r)-4-((2-methoxyethyl)amino)cyclohexyl)-1H-pyrazolo[4,3-c]pyridin-3-yl)-2,5-difluorophenyl)-2-chloro-5-(difluoromethoxy)benzenesulfonamide]
9 |  |  | 1.3 | Cc1ccc(F)c(S(=O)(=O)Nc2cc(F)c(-c3nn(C(C)C)c4c3c(N)ncc4[C@H]3CC[C@H](NC[C@H](C)F)CC3)cc2F)c1 [Compound A23, N-(4-(4-amino-7-((1S,4r)-4-(((S)-2-fluoropropyl)amino)cyclohexyl)-1-isopropyl-1H-pyrazolo[4,3-c]pyridin-3-yl)-2,5-difluorophenyl)-2-fluoro-5-methylbenzenesulfonamide]
10 |  | 26.9 |  | CC(C)n1nc(-c2cc(F)c(NS(=O)(=O)c3cc(F)ccc3F)cc2F)c2c(N)ncc([C@H]3CC[C@H](N4CCOCC4)CC3)c21 [Compound A16, N-(4-(4-amino-1-isopropyl-7-((1r,4r)-4-morpholinocyclohexyl)-1H-pyrazolo[4,3-c]pyridin-3-yl)-2,5-difluorophenyl)-2,5-difluorobenzenesulfonamide]
11 | 466 | 1650 |  | CC(C)n1nc(-c2cc(F)c(NS(=O)(=O)c3ccccc3F)cc2F)c2c(N)ncc([C@H]3CC[C@@H](N4CCOCC4)CC3)c21 [Compound A14, N-(4-(4-amino-1-isopropyl-7-((1s,4s)-4-morpholinocyclohexyl)-1H-pyrazolo[4,3-c]pyridin-3-yl)-2,5-difluorophenyl)-2-fluorobenzenesulfonamide]
12 | 4.8 | 12.2 |  | [2H]C([2H])([2H])Oc1ccc(F)c(S(=O)(=O)Nc2cc(F)c(-c3nn(C(C)C)c4c3c(N)ncc4[C@H]3CC[C@H](NCCOC)CC3)cc2F)c1 [Compound A2, N-(4-(4-amino-1-isopropyl-7-((1r,4r)-4-((2-methoxyethyl)amino)cyclohexyl)-1H-pyrazolo[4,3-c]pyridin-3-yl)-2,5-difluorophenyl)-2-fluoro-5-(methoxy-d3)benzenesulfonamide]
13 | 2.8 | 3.3 |  | COCCN[C@H]1CC[C@H](c2cnc(N)c3c(-c4cc(F)c(NS(=O)(=O)c5cc(C)ccc5Cl)cc4F)nn(C(C)C)c32)CC1 [Compound A4, N-(4-(4-amino-1-isopropyl-7-((1r,4r)-4-((2-methoxyethyl)amino)cyclohexyl)-1H-pyrazolo[4,3-c]pyridin-3-yl)-2,5-difluorophenyl)-2-chloro-5-methylbenzenesulfonamide]
14 | 6 | 6.8 | 1.9 | [2H]C([2H])([2H])Oc1ccc(F)c(S(=O)(=O)Nc2cc(F)c(-c3nn(C(C)C)c4c3c(N)ncc4[C@H]3CC[C@H](N4CCOCC4)CC3)cc2F)c1 [Compound A18, N-(4-(4-amino-1-isopropyl-7-((1r,4r)-4-morpholinocyclohexyl)-1H-pyrazolo[4,3-c]pyridin-3-yl)-2,5-difluorophenyl)-2-fluoro-5-(methoxy-d3)benzenesulfonamide]
15 |  |  | 0.893 | Cc1ccc(F)c(S(=O)(=O)Nc2cc(F)c(-c3nn(C(C)C)c4c3c(N)ncc4[C@H]3CC[C@H](NC[C@@H](C)F)CC3)cc2F)c1 [Compound A24, N-(4-(4-amino-7-((1R,4r)-4-(((R)-2-fluoropropyl)amino)cyclohexyl)-1-isopropyl-1H-pyrazolo[4,3-c]pyridin-3-yl)-2,5-difluorophenyl)-2-fluoro-5-methylbenzenesulfonamide]
16 |  | 6.7 |  | CCOc1ccc(F)c(S(=O)(=O)Nc2cc(F)c(-c3nn(C(C)C)c4c3c(N)ncc4[C@H]3CC[C@H](NCC(C)(C)OC)CC3)cc2F)c1 [Compound A6, N-(4-(4-amino-1-isopropyl-7-((1r,4r)-4-((2-methoxy-2-methylpropyl)amino)cyclohexyl)-1H-pyrazolo[4,3-c]pyridin-3-yl)-2,5-difluorophenyl)-5-ethoxy-2-fluorobenzenesulfonamide]
